# Laboratory results reported in the NIST ThermoML archive (doi:10.1016/j.fluid.2018.05.023).
# ± gives the expanded uncertainty stated by the source.
# Tests used:
# [1] = Crystal; DTA
# [2] = Molar enthalpy of transition or fusion; settings: Crystal; DSC
smiles,measurement,setting,value
Cn1cc([N+](=O)[O-])cn1 [1-methyl-4-nitropyrazole],Normal melting temperature,[1],92.00 ± 1.1 °C
same,Molar enthalpy of transition or fusion,[2],2.36 ± 0.112 kcal/mol
